# In article PMC11123841, “Discovery and Synthesis of Hydroxy-L-Proline Blockers of the Neutral Amino Acid Transporters SLC1A4 (ASCT1) and SLC1A5 (ASCT2)” (Molecules, 2024):
# Like-named read-outs stand apart in the source and are kept apart here.
# Assays:
# Type in all cases: cell-based
# SLC1A5 = biological target: T1, SLC1A5 (Mus musculus, UniProt P51912); test: [3H]L-Gln radiolabeled uptake competition in oocytes; conditions: 10 µM [3H]L-Gln uptake in SLC1A5; read-out: IC50, block of [3H]L-Gln uptake
# T1 construct: expressed in transfected cells; host or cells: Xenopus laevis oocytes (cRNA injection)
# T1 sequence (P51912 1-553): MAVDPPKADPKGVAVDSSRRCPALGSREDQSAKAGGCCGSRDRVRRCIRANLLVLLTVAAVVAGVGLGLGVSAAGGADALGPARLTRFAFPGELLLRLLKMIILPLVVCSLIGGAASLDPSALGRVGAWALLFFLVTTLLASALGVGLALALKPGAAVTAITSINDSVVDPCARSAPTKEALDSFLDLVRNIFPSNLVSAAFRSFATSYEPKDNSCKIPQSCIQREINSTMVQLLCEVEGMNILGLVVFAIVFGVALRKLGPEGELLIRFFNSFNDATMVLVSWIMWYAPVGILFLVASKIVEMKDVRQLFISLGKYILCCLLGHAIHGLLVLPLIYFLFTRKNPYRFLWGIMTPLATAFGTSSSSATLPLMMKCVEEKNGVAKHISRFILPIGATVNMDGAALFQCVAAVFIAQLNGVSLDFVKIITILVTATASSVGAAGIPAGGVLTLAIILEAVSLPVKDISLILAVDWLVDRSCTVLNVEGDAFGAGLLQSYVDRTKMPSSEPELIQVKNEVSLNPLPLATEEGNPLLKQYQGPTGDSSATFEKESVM
# Protocol: Uptake was halted by washing 3 times with 4 °C ND96 buffer. Oocytes were then lysed in 0.1% Triton X-100, and radioactivity was counted via liquid scintillation. Dose response curves were generated by fitting fractional inhibition (I) to the expression I = Imax × [inhibitor]/([inhibitor] + IC50).
# (A) SLC1A4 dose response curves for substrate activated anion currents using two-electrode voltage clamp of Xenopus lavies oocytes (−30 mV). […] (B) SLC1A5 dose response curve for substrate activated anion currents using two-electrode voltage clamp (−30 mV). […] Extracellular solutions contained 50 mM NaSCN.
# mSLC1A5 = biological target: T2, mSLC1A5 (Mus musculus, UniProt P51912); test: TEVC block of anion leak conductance in oocytes
# T2 construct: expressed in transfected cells; host or cells: Xenopus laevis oocytes (cRNA injection)
# T2 sequence (P51912 1-553): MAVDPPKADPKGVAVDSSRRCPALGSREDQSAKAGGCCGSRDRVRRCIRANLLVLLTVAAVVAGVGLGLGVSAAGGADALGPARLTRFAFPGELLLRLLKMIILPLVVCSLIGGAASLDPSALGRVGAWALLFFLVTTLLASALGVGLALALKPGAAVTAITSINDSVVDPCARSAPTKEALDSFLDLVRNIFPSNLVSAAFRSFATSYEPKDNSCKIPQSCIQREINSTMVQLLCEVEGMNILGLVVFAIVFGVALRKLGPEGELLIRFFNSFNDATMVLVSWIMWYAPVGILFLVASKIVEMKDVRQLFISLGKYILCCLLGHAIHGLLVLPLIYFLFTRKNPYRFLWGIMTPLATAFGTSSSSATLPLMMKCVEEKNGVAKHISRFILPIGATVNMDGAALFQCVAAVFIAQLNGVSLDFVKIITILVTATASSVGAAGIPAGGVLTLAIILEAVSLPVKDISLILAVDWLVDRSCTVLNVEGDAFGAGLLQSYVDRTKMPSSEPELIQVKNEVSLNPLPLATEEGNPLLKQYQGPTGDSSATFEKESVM
# From the text: (§1) The currents induced by substrates and blocked by hydroxyproline analogs shared a reversal potential shown in the current/voltage relationship consistent with the conductance originating from the same ion pore (Figure 3, inset). […] The observed dose–response relationships are independent of competing substrates, and thus provide a direct measure of the equilibrium inhibition constant (Ki). Each synthetic hydroxyproline analog was functionally assessed for its capacity to inhibit SLC1A4 and SLC1A5 leak currents with affinities reported in Table 1 as determined or approximated Ki.
# (§2) Two-electrode voltage clamp (TEVC) transporter currents were recorded with a GeneClamp 500 amplifier and Digidata 1320A analog–digital interface (Molecular Devices, San Jose, CA, USA). Electrodes (0.2–1.0 MΩ) were filled with 3M KCl and the recording chamber was grounded with an agar bridge. Data were acquired with Axograph (v1.7.6) and LabChart (v7) and analyzed with Kaleidagraph software (v4.1) (Synergy, Reading, PA, USA). Uncoupled anion currents associated with the transport of substrate and block of SLC1A4 or SLC1A5 mediated leak conductance were recorded in the presence of Ringer with 50% substitution of NaCl by NaSCN to amplify the non-transported anion conductance.
# (§3) Figure 3 AHPCs block a leak current in SLC1A4 and SLC1A5. […] Inset (A): The current and voltage relationship for SLC1A4 currents activated by Ala or blocked by 14b are determined by subtracting voltage jumps in buffer.
# SLC1A4 = biological target: T3, SLC1A4 (Homo sapiens, UniProt P43007); test: TEVC block of anion leak conductance in oocytes
# T3 construct: expressed in transfected cells; host or cells: Xenopus laevis oocytes (cRNA injection)
# T3 sequence (P43007 1-532): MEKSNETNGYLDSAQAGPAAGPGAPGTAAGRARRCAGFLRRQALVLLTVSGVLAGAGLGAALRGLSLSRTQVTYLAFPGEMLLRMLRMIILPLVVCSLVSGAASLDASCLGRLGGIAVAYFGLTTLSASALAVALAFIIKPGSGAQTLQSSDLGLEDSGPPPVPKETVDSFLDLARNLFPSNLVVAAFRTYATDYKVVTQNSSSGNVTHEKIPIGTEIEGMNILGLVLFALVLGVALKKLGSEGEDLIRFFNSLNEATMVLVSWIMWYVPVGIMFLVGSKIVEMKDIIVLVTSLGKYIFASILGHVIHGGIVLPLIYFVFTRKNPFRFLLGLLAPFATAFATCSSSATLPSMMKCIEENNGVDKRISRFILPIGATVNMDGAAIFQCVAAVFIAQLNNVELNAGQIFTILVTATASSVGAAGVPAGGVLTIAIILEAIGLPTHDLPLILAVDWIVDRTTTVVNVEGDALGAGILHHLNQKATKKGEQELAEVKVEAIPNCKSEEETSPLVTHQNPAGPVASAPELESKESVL
# From the text: as §1, §2, §3
# [1] = mSLC1A5, from dose–response of blocked anion conductance, compounds tested only once without standard error, read-out: SLC1A5 Ki
# [2] = from dose–response of blocked anion conductance, compounds tested only once without standard error, read-out: SLC1A4 Ki
block of anion leak conductance / inhibition (mSLC1A5; SLC1A5),Ki (mSLC1A5; [1]),block of anion leak conductance / inhibition (SLC1A4; SLC1A4),Ki (SLC1A4; [2]),Structure (SMILES),other results
,,,,"O=C(O)[C@H]1NCC[C@@H]1O [3-HP, trans-3-hydroxy-L-proline]",IC50 (SLC1A5): 39 µM
no inhibition of transport,1150 ± 283 µM,no inhibition of transport,1050 ± 110 µM,"CC1CNC(C(=O)O)C1O [10a, trans-3-hydroxy-cis-4-methyl-L-proline]",
,922 ± 316 µM,,564 ± 149 µM,CC1C(O)CNC1C(=O)O (stereo not shown) [10b],
,~600 µM,,~600 µM,O=C(O)C1NCC(c2ccccc2)C1O (stereo not shown) [10c],
,1130 ± 318 µM,,332 ± 74 µM,"O=C(O)C1NCC(O)C1c1ccccc1 [10d, cis-3-phenyl-4-trans-hydroxy-L-proline]",
,141 ± 20 µM,,150 ± 43 µM,O=C(O)C1NCC(Oc2ccccc2)C1O (stereo not shown) [12a],
,502 ± 110 µM,,594 ± 191 µM,O=C(O)C1NCC(O)C1Oc1ccccc1 (stereo not shown) [12b],
,~150 µM,,~150 µM,"O=C(O)C1NCC(Oc2ccccc2)C1O [12c, (2S,3R,4S)-3-hydroxy-4-phenoxypyrrolidin-2-carboxylate]",
block the anion conductance,,block the anion conductance,,"CC(C)O[C@@H]1CN[C@H](C(=O)O)[C@H]1O [14b, trans-3-hydroxy-cis-4-isopropoxy-L-proline]",
block the anion conductance,,block the anion conductance,,O=C(O)[C@H]1NC[C@@H](OCc2ccccc2)[C@@H]1O [14c],"fold higher affinity than 12a (mSLC1A5; SLC1A5): ~ 6 fold; Ki (mSLC1A5; SLC1A5, read-out: Ki): < 100 µM; fold higher affinity than 12a (SLC1A4; SLC1A4): ~ 6 fold; Ki (SLC1A4; SLC1A4, read-out: Ki): < 100 µM"
